Results: patent US20060057093A1, “Preparation for topical use with the function of combating hair loss” (priority 2003, published 2006)

Assays:
[1] = tested on: transglutaminases in keratinocytes; settings: cited from earlier work
[2] = tested on: human fibroblast cultures; assay: cell-stimulating action on human fibroblast cultures; assay type: cell-based; settings: active ingredient present in the culture medium
From the text: The cell-stimulating action of the complex of amino acids with silanol has been tested on human fibroblast cultures. The increase in cell growth was 46% when that active ingredient was present in the culture medium.

Row | Molecule | formation of the corneified enclosure of the corneocytes ([1]; keratinocytes in the final stage of differentiation) | synthesis of transglutaminases in keratinocytes ([1]; keratinocytes) | increase in cell growth [2]
1 | CCCC(=O)[O-].[Na+] [sodium butyrate] | capable of stimulating | capable of stimulating the synthesis of transglutaminases | –
2 | monomethylsilanol-hydroxyproline aspartate [complex of amino acids with silanol] | – | – | 46%
